Source: ChEMBL document CHEMBL3351486 (Bioorg Med Chem Lett, 2014)
Active and inactive are the calls of the source. The rule behind the calls is not given here.

Legend:
[1] = Cytotoxicity against Remb1 cells (unknown origin) assessed as cell killing after 24 hrs by MTT assay; format: functional, cell-based; settings: Remb1, 24 h
[2] = Cytotoxicity against BL2 cells (unknown origin) assessed as cell killing after 24 hrs by MTT assay; format: functional, cell-based; settings: BL2, 24 h
[3] = Cytotoxicity against BL2/B95 cells (unknown origin) assessed as cell killing after 24 hrs by MTT assay; format: functional, cell-based; settings: BL2/B95, 24 h
[4] = Cytotoxicity against BL2/B95 cells (unknown origin) assessed as cell killing at 10 uM after 24 hrs by MTT assay; format: functional
Bcl-xL/BAK = Bcl-xL/BAK (Homo sapiens, UniProt Q07817); assay: Inhibition of Bcl-xL/Bak (unknown origin) interaction; format: protein assay
Bcl-xL/BAK, sequence (Q07817 whole entry): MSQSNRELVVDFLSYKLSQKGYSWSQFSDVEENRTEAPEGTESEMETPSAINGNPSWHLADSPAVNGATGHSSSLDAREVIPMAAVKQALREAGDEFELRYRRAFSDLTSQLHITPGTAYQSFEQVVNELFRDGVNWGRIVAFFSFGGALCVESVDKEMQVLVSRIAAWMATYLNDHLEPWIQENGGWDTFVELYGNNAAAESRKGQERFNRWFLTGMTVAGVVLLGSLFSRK
Bcl-xL/BAK, sequence (Q16611 whole entry, further chain): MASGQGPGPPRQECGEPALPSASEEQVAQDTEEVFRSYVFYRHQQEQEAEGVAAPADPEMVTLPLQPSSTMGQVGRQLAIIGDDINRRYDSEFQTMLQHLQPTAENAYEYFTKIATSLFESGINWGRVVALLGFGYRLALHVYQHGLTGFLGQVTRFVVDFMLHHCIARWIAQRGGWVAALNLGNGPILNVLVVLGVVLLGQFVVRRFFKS

BL2/B95 = assay: Induction of apoptosis in BL2/B95 cells (unknown origin) assessed as PARP cleavage at 7.5 uM after 24 hrs by Western blot analysis; format: functional, cell-based
BL2 = assay: Induction of apoptosis in BL2 cells (unknown origin) assessed as PARP cleavage at 7.5 uM after 24 hrs by Western blot analysis; format: functional, cell-based
[5] = Induction of apoptosis in BL2 cells (unknown origin) at 7.5 uM after 24 hrs by Annexin V/propidium iodide staining-based flow cytometric analysis; format: functional
[6] = Induction of apoptosis in BL2/B95 cells (unknown origin) at 7.5 uM after 24 hrs by Annexin V/propidium iodide staining-based flow cytometric analysis; format: functional
[7] = Induction of apoptosis in Remb1 cells (unknown origin) at 7.5 uM after 24 hrs by Annexin V/propidium iodide staining-based flow cytometric analysis; format: functional
[8] = Cytotoxicity against BL2 cells (unknown origin) assessed as cell killing at 10 uM after 24 hrs by MTT assay; format: functional
Remb1 = assay: Induction of apoptosis in Remb1 cells (unknown origin) assessed as PARP cleavage at 7.5 uM after 24 hrs by Western blot analysis; format: functional, cell-based
[9] = Cytotoxicity against Remb1 cells (unknown origin) assessed as cell killing at 10 uM after 24 hrs by MTT assay; format: functional
[10] = target: Induced myeloid leukemia cell differentiation protein Mcl-1/BH3-interacting domain death agonist (Homo sapiens, UniProt Q07820); assay: Inhibition of Mcl1/Bid (unknown origin) interaction; format: protein assay
Induced myeloid leukemia cell differentiation protein Mcl-1/BH3-interacting domain death agonist, sequence (Q07820 whole entry, the tested form may be a part): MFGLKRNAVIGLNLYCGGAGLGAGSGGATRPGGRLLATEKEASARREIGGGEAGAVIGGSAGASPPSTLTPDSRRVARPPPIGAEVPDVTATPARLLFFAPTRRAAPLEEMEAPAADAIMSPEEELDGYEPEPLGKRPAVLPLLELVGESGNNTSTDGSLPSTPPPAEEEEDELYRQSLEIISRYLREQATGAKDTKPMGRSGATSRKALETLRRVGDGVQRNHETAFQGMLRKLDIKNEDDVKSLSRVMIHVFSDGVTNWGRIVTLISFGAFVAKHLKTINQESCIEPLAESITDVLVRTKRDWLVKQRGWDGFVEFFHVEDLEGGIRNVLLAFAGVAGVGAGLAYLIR
Induced myeloid leukemia cell differentiation protein Mcl-1/BH3-interacting domain death agonist, sequence (P55957 whole entry, further chain, the tested form may be a part): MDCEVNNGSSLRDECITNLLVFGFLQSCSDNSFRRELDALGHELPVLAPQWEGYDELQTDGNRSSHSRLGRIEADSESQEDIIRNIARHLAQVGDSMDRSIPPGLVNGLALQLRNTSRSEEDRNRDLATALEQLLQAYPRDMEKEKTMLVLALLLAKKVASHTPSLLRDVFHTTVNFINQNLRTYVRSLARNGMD

| Ki (Bcl-xL/BAK) | Compound | IC50 [1] | IC50 [2] | IC50 [3] | Activity [4] | Activity (BL2/B95) | Activity (BL2) | Activity [5] | Activity [6] | Activity [7] | Activity [8] | Activity (Remb1) | Activity [9] | Ki [10] |
| --- | --- | --- | --- | --- | --- | --- | --- | --- | --- | --- | --- | --- | --- | --- |
| – | CC(C)=CCC[C@@H](C)[C@H]1C=C[C@@]2(C(=O)O)[C@H](CC(C)=C[C@@H]2/C=C(\C)[C@H]2CC[C@H](C(=O)O)CC2)C1 | > 20 µM | > 20 µM | > 20 µM | – | – | – | – | – | – | – | – | – | – |
| – | CC(C)=CCC[C@H](C)[C@H]1C=C[C@@]2(C(=O)O)[C@H](CC(C)=C[C@@H]2/C=C(\C)[C@H]2CC[C@H](C(=O)O)CC2)C1 | > 20 µM | > 20 µM | > 20 µM | – | – | – | – | – | – | – | – | – | – |
| 4.6 µM | CC(C)=CCC[C@@H](C)[C@@H]1C=C[C@]2(C(=O)O)[C@@H](CC(C)=C[C@H]2/C=C(\C)c2ccc(C(=O)O)cc2)C1 | 8.6 µM | 8.5 µM | 8.6 µM | >50% | Active | Active | 71% | 52% | 54% | >50% | Active | >50% | 9.1 µM |
| 7.5 µM | CC(C)=CCC[C@H](C)[C@@H]1C=C[C@]2(C(=O)O)[C@@H](CC(C)=C[C@H]2/C=C(\C)c2ccc(C(=O)O)cc2)C1 | > 20 µM | > 20 µM | > 20 µM | – | – | – | – | – | – | – | – | – | 15.9 µM |
| – | CC(C)=CCC[C@@H](C)[C@@H]1C=C[C@]2(C(=O)O)[C@@H](CC(C)=C[C@H]2/C=C(\C)[C@H]2CC[C@H](C(=O)O)CC2)C1 | > 20 µM | > 20 µM | > 20 µM | – | – | – | – | – | – | – | – | – | – |
